Measured values: US20250270159A1, “1-(CYCLOBUTANEMETHYLIDENE)-2, 4, 5-TRIMETHOXYBENZENE COMPOUND AND PREPARATION METHOD AND USE THEREOF” (CHENGDU XINRUI TAIKANG TECHNOLOGY CO., LTD., priority 2023, published 2025)

Columns and labels:
[1] = system: rat model of lithium-pilocarpine-induced epilepsy; assay: Rat model of lithium-pilocarpine-induced epilepsy (SE), highest seizure grade score; type: in vivo, Sprague Dawley (SD) rats; details: 300 mg/kg oral gavage, 1 h after SE onset; acute phase; Racine 0-6
Experimental: (1) Experimental Animals: SPF Adult Male Sprague Dawley (SD) Rats, with a Weight of 200-250 g.
Methylscopolamine bromide, lithium chloride, and pilocarpine were weighed, and experimental drugs were dissolved to working concentrations (100 mg/mL of lithium chloride solution, 1 mg/mLof methylscopolamine bromide solution, and 20 mg/mL of pilocarpine solution) with 0.9% saline. Rats were injected intraperitoneally with lithium chloride (a dose of 127 mg/kg), and 18-20 h later, scopolamine methylbromide (a dose of 1 mg/kg) was injected intraperitoneally. […] Thereafter, an additional dose of 10 mg/kg pilocarpine was injected intraperitoneally every 30 min until the onset of a grade IV or higher status epilepticus (SE)-like seizure without significant intermittent intervals, with a maximum dose of 60 mg/kg.
Model inclusion criterion: experimental animals presenting continuous seizures of grade IV or higher for 1 h was judged as successful modeling.
The rats with successful modeling were randomly divided into three groups, namely a model group, a CTMB group, and a sodium valproate (VPA) group. […]
Referring to the grading scale of Racine scores, the seizure symptoms of each group of rats after the drug intervention were observed, and the seizure grades of each group of rats in the acute phase were recorded. […]

[2] = system: Parkinson's disease (PD) mice, 6-OHDA method; assay: 6-OHDA Parkinson's disease mice, rod-climbing experiment; type: in vivo, C57 mice; details: Group L, levodopa: benserazide hydrochloride=4:1, 12 mg/kg ip
Experimental: (§1) The mice were randomly divided into a sham operation group (group S, given a blank emulsion with a volume equal to that of the administered group), a model group (group M, given a blank emulsion with a volume equal to that of the administered group), a CTMB group (20 mg/kg, group D), and a levodopa group (levodopa: benserazide hydrochloride=4:1, 12 mg/kg, group L), each group included 10-12 mice, and all of them were administered intraperitoneally.
(§2) Preoperatively, mice were fasted for 12 h, and mice were anesthetized with 4% isoflurane induction and maintained with 1.5% isoflurane. The mice were subsequently immobilized on a brain stereotaxic apparatus. The bregma and lambda points were exposed by gently wiping the cranial surface with a cotton swab after cutting the scalp. The stereotaxic apparatus was adjusted to align the heights of the bregma and lambda points, thereby leveling the skull. The bregma point was designated as the origin, the coordinates where the injection site was located were located, and the drill was used to drill a small hole in the skull above the injection site.
(§3) 6-OHDA (12.5 μg/μL) was injected into the striatum region (AP+0.5 mm; ML+2.00 mm; DV-3.00 mm and-2.00 mm) of the mice, and 1 μL 6-OHDA was injected into each of the two points at a rate of 0.5 μL/min. The needle was left in place for 3 min after the injection was completed, and then the injection needle was lifted, and the scalp of the mice was sutured and disinfected. The sham operation group was injected with an equal volume of saline containing 0.02% ascorbic acid, and other operations were performed as above. After the procedure, the mice were placed in the cage at an appropriate temperature. After awakening from anesthesia, the mice were kept normally.
The rod-climbing experiment: the rod-climbing experiment was mainly used to test the limb movement ability of mice and to assess the symptoms of motor delay. This experiment evaluated the ability of mice to grasp and maneuver on a pole to descend to their home cage. A cork ball was fixed to an iron pole with a diameter of 1 cm and a length of 65 cm. The head of the mice was put down on the top of the pole, and the mice usually naturally descended down along the pole to return to their cage. The time for the mice to descend to the bottom was recorded. Results were averaged over 3 consecutive measurements.
(§4) The motor function of the mice was comprehensively assessed using the rod-climbing experiment and the hanging experiment at 1, 2, 3, and 4 weeks after drug administration.

[3] = system: Parkinson's disease (PD) mice, 6-OHDA method; assay: 6-OHDA Parkinson's disease mice, hanging experiment; type: in vivo, C57 mice; details: Group L, levodopa: benserazide hydrochloride=4:1, 12 mg/kg ip, cut-off 60 s
Experimental: as §1, §2, §3
The hanging experiment: normal mice have climbing activity, which requires proper grip strength and motor coordination, so the hanging experiment may be used to examine motor dysfunction in mice. A metal rod with a diameter of 1.5 mm was placed horizontally on top of the box, and a distance from the metal rod to the bottom of the box was 30 cm. […] Measurement was performed twice, with an interval of 1 min or more between each test, and the results were averaged over the two times.
as §4

[4] = system: neurons in the substantia nigra region of the midbrain of PD mice; assay: Niehl's staining, number of neuronal Niehl's bodies in substantia nigra of PD mice; type: in vivo, C57 mice; details: Group L, levodopa: benserazide hydrochloride=4:1, 12 mg/kg ip, after 4 weeks of administration
Experimental: as §1
(§5) After completing the evaluation of motor function after 4 weeks of drug administration, the mice were deeply anesthetized, perfused with 20 mL of saline and 20 mL of 4% paraformaldehyde via the heart, and the brains were rapidly severed and extracted from the head, which were then preserved and fixed in 4% paraformaldehyde for 72 h after removal, and then embedded with paraffin to prepare the slices with a thickness of 4 μm for subsequent pathological and histological studies.
Niehl's staining was used to identify Niehl's bodies in neuronal cells.

[5] = system: neurons of substantia nigra region and striatum of PD mice; assay: HE staining of substantia nigra and striatum of PD mice; type: in vivo, C57 mice; details: Group L, levodopa: benserazide hydrochloride=4:1, 12 mg/kg ip, 4 weeks; compared with model group; FIG. 5-7
Experimental: as §1, §5
Hematoxylin-eosin (HE) staining may be used to observe changes in the pathological condition of brain tissue. […]

[6] = system: Tyrosine hydroxylase (TH) protein expression; assay: TH protein expression by immunohistochemistry in substantia nigra of PD mice; type: in vivo, C57 mice; details: Group L, levodopa: benserazide hydrochloride=4:1, 12 mg/kg ip, after 4 weeks of administration
Experimental: as §1, §5
Tyrosine hydroxylase (TH) protein expression was detected by immunohistochemistry. […]

| SMILES | Seizure grade score (highest, SE model rats) [1] | Rod-climbing time, 1 week of administration [2] | Rod-climbing time, 2 weeks of administration [2] [s] | Rod-climbing time, 3 weeks of administration [2] [s] | Rod-climbing time, 4 weeks of administration [2] [s] | Rod-climbing time, Before administration ([2]; baseline 2 weeks after 6-OHDA) [s] | Hanging time, Before administration ([3]; baseline 2 weeks after 6-OHDA) [s] | Hanging time, 1 week of administration [3] [s] | Hanging time, 2 weeks of administration [3] [s] | Hanging time, 3 weeks of administration [3] [s] | Hanging time, 4 weeks of administration [3] [s] | Number of Niehl's bodies [4] | degree of pathological damage to the substantia nigra region and striatum [5] | TH-positive neurons (a percentage of TH-positive neurons to uninjured side, %) [6] [%] |
| --- | --- | --- | --- | --- | --- | --- | --- | --- | --- | --- | --- | --- | --- | --- |
| CCCC(CCC)C(=O)[O-].[Na+] [VPA, sodium valproate, reference compound] | 5.00 ± 0.00 |  |  |  |  |  |  |  |  |  |  |  |  |  |
| N[C@@H](Cc1ccc(O)c(O)c1)C(=O)O [levodopa, Levodopa, reference compound] |  | 6.39 ± 1.18 ^ s | 5.79 ± 0.49 | 5.34 ± 0.84 | 4.93 ± 0.59 | 9.63 ± 2.53 | 43.7 ± 19.5 | 54.4 ± 8.0 | 47.0 ± 16.2 | 48.2 ± 18.1 | 50.3 ± 12.9 | 57.8 ± 6.5 | reduced | 18.8 ± 7.6 |
